The values that follow come from patent US12466804B2 (BRISTOL-MYERS SQUIBB COMPANY, priority 2019, dated 2025).

Each structure is given as a SMILES string.

One assay relates to IPF patients. To be noted: 26-week clinical trial in IPF patients (Palmer et al.); cited from earlier work.
A further assay relates to nerve-injured mice. To be noted: pretreatment, nerve-injured mice (Inoue et al.); cited from earlier work.
For assay [1], the system named is human foetal lung fibroblasts. To be noted: Tager et al.; cited from earlier work.
The subject of another assay is UUO mice. To be noted: cited from earlier work.
Assay [2] relates to mouse epithelial renal cell line, MCT. To be noted: MCT cells, co-treatment with LPA; cited from earlier work.
In assay [3] the test system is pancreatic cancer cell lines. To be noted: cited from earlier work.
Another assay concerns the target T1, human LPA1 (Homo sapiens, UniProt Q92633).
T1 construct: expressed in transfected cells; host or cells: Chinese hamster ovary (CHO) cells
Description: LPA1 functional antagonist assay (LPA-induced calcium flux). The assay is classed as cell-based. To be noted: CHO cells overexpressing human LPA1; calcium flux induced by 10 nM LPA; read-out: hLPA1 IC50. The procedure: The effectiveness of compounds of the present invention as LPA1 inhibitors can be determined in an LPA1 functional antagonist assay as follows:
The cells were then equilibrated to room temperature for 30 minutes before the assay. […] IC50 values were determined by fitting data to a 4-parameter logistic equation (GraphPad Prism, San Diego CA).
(Calcium assays in cells follow changes in intracellular calcium, usually with a dye or a luminescent sensor.)

T1 sequence (Q92633 whole entry): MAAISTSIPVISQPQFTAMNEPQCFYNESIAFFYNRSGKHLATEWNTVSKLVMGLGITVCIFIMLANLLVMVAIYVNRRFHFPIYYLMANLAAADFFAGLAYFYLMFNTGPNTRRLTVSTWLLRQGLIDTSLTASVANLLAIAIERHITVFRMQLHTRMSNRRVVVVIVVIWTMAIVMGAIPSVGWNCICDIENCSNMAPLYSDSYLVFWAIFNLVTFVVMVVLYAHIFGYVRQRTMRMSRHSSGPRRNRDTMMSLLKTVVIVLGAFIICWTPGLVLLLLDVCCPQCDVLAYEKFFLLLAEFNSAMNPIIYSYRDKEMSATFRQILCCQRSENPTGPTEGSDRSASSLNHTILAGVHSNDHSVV

With `Cc1noc(-c2ccc(-c3ccc(C4(C(=O)O)CC4)cc3)cc2)c1NC(=O)O[C@H](C)c1ccccc1` [BMS-986020], the “rate of FVC (forced vital capacity) decline” value with IPF patients was “significantly reduce”.

Take `C[C@@H](N)[C@H]1CC[C@H](C(=O)Nc2ccncc2)CC1` [Example Y-27632]: the allodynia and hyperalgesia entry in the assay on nerve-injured mice was “completely abolished”.

As to `Cc1noc(-c2ccc(CSCCC(=O)O)cc2)c1NC(=O)OC(C)c1ccccc1Cl` (centres unmarked) [Ki16425], the “chemotaxis of human foetal lung fibroblasts induced by BAL from IPF patients” value in assay [1] is listed as “blocked”. Moreover, the “development of renal fibrosis” value with UUO mice is reported as “closely resembled the profile of LPA1 (−/−) mice”. Besides, the “LPA-induced expression of the profibrotic cytokine CTGF” value in assay [2] is “almost completely suppressed”. In addition, the “LPA-induced and ascites-induced invasion activity” value in assay [3] (highly peritoneal metastatic pancreatic cancer cell line) is given as “blocked”. For the same compound, in assay [3] (pancreatic cancer cell lines (Yamada et al.)), the “in vitro migration in response to LPA and peritoneal fluid (ascites) from pancreatic cancer patients” value is “effectively blocked”.

Broadly, the IC50 is the concentration needed to halve the response being measured. With `CC[C@H](C)COC(=O)NCc1c(-c2ccc(OC[C@@H]3CC[C@H]3C(=O)O)c(C)n2)nnn1C` (racemic) [Example 43, (±)-(1R,2R)-2-(((2-methyl-6-(1-methyl-5-(((((S)-2-methyl-butoxy)carbonyl)amino)methyl)-1H-1,2,3-triazol-4-yl)pyridin-3-yl)oxy)methyl)cyclobutane carboxylic acid], the IC50 at human LPA1 turned out to be 0.047 µM.

For `Cc1nc(-c2nnn(C)c2COC(=O)NC2CCCCC2)ccc1OC[C@@H]1CC[C@H]1C(=O)O` (racemic) [Example 45, (±)-(1R,2R)-2-(((6-(5-(((cyclohexylcarbamoyl)oxy)methyl)-1-methyl-1H-1,2,3-triazol-4-yl)-2-methyl-pyridin-3-yl)oxy)methyl)cyclobutane-1-carboxylic acid], at human LPA1, the IC50 stood at 0.435 µM.

For `Cc1nc(-c2nnn(C)c2COC(=O)N(C)CC2CCC2)ccc1OC[C@@H]1CC[C@H]1C(=O)O` (racemic) [Example 6, (±)-(1R,2R)-2-(((6-(5-((((cyclobutylmethyl)(methyl)carbamoyl)oxy)methyl)-1-methyl-1H-1,2,3-triazol-4-yl)-2-methylpyridin-3-yl)oxy)methyl)cyclobutane-1-carboxylic acid], the IC50 at human LPA1 came to 0.027 µM.

For `Cc1noc(-c2ccc(OC[C@@H]3CC[C@H]3C(=O)O)cc2)c1COC(=O)N(C)C1CCCC1` (racemic) [Example 1, (±)-(1R,2R)-2-((4-(4-(((cyclopentyl(methyl)carbamoyl)oxy)methyl)-3-methylisoxazol-5-yl)phenoxy)methyl)cyclobutane-1-carboxylic acid], at human LPA1, the IC50 was found to be 0.187 µM.

As for `Cc1nc(-c2nnn(C)c2CNc2nccc(C(C)C)n2)ccc1OC[C@@H]1CC[C@H]1C(=O)O` (racemic) [Example 23, (±)-(1R,2R)-2-(((6-(5-(((4-isopropyl-pyrimidin-2-yl)amino)methyl)-1-methyl-1H-1,2,3-triazol-4-yl)-2-methylpyridin-3-yl)oxy)methyl)cyclobutane-1-carboxylic acid], on human LPA1, the IC50 amounted to 0.117 µM.

Turning to `Cc1nc(-c2nnn(C)c2CNc2noc(CC3CC3)n2)ccc1OC[C@H]1CC[C@@H]1C(=O)O` (racemic) [Example 60, (±)-(1S,2S)-2-(((6-(5-(((5-(Cyclopropylmethyl)-1,2,4-oxadiazol-3-yl)amino)methyl)-1-methyl-1H-1,2,3-triazol-4-yl)-2-methylpyridin-3-yl)oxy)methyl) cyclobutane-1-carboxylic acid], the IC50 on human LPA1 stood at 1.16 µM.

With `Cc1nc(-c2nnn(C)c2COc2cc(OC3CC3)ncn2)ccc1OC[C@@H]1CC[C@H]1C(=O)O` (racemic) [Example 17, (±)-(1R,2R)-2-(((6-(5-(((6-cyclopropoxy-pyrimidin-4-yl)oxy)methyl)-1-methyl-1H-1,2,3-triazol-4-yl)-2-methylpyridin-3-yl)oxy)methyl)cyclobutane-1-carboxylic acid], at human LPA1, the IC50 was found to be 0.066 µM.

`Cc1nc(-c2nnn(C)c2CNC(=O)OCC(C)CC(F)(F)F)ccc1OC[C@@H]1CC[C@H]1C(=O)O` (mixture of isomers) [Example 44, (±)-(1R,2R)-2-(((2-methyl-6-(1-methyl-5-((((4,4,4-trifluoro-2-methylbutoxy)carbonyl)amino)methyl)-1H-1,2,3-triazol-4-yl)pyridin-3-yl)oxy)methyl)cyclobutane carboxylic acid]: the IC50 at human LPA1 came out at 0.103 µM.

In the case of `Cc1nc(-c2nnn(C)c2CNc2ncc(-c3ccccn3)o2)ccc1OC[C@@H]1CC[C@H]1C(=O)O` (racemic) [Example 40, (±)-(1R,2R)-2-(((2-methyl-6-(1-methyl-5-(((5-(pyridin-2-yl)oxazol-2-yl)amino)methyl)-1H-1,2,3-triazol-4-yl)pyridin-3-yl)oxy)methyl)cyclobutanecarboxylic acid], at human LPA1, the IC50 came out at 0.52 µM.

As for `Cc1nc(-c2nnn(C)c2CNc2nccc(C(C)C)n2)ccc1OC[C@H]1CC[C@@H]1C(=O)O` (single isomer, unassigned) [Example 25], the IC50 at human LPA1 came out at 0.051 µM.
